Tested on: patients with advanced solid tumors
Test: Phase I trial: safety, tolerability, DLT, MTD (CTCAE v4.0)
Assay type: in vivo
Excerpt: Eligible patients had at least one measurable lesion per RECIST v 1.1, Eastern Cooperative Oncology Group (ECOG) performance status of 0 or 1, and adequate hematological, renal, cardiac and hepatic functions. The primary objectives were to assess safety and tolerability as well as to determine the MTD, DLT, and dose recommended for further study. The secondary objectives were to assess the PK and preliminary efficacy of CT053PTSA.
An initial accelerated titration design was used in the 15 and 30 mg QD cohorts, and the “3+3” schema was used starting in the 60 mg QD cohort. […] The study protocol was approved by an institutional review board at Sun Yat-sen University Cancer Center. Written informed consent was obtained from all the patients before enrollment.
Descriptive statistics of safety are presented per CTCAE v4.0. Subjects who received at least one dose of CT053PTSA were considered eligible to be evaluated and included in safety analyses. […] According to the RECIST 1.1 criteria, imaging examinations were performed at each specified time point in the protocol. The antitumor activity was measured by RECIST1.1.

Cc1c(C(=O)Nc2ccc(Oc3ccnc4cc(OCC(C)(C)O)ccc34)c(F)c2)c(=O)n(-c2ccccc2)n1C [CT053PTSA]
Anaemia, All (15mg (n = 1)): 0 n (%)
Anaemia, ≥ G3 (15mg (n = 1)): 0 n (%)
Blood chloride decreased, All (15mg (n = 1)): 0 n (%)
Blood chloride decreased, ≥ G3 (15mg (n = 1)): 0 n (%)
Blood creatinine increased, All (15mg (n = 1)): 0 n (%)
Blood creatinine increased, ≥ G3 (15mg (n = 1)): 0 n (%)
Blood potassium decreased, All (15mg (n = 1)): 0 n (%)
Blood potassium decreased, ≥ G3 (15mg (n = 1)): 0 n (%)
Blood sodium decreased, All (15mg (n = 1)): 0 n (%)
Blood sodium decreased, ≥ G3 (15mg (n = 1)): 0 n (%)
Blood uric acid increased, All (15mg (n = 1)): 0 n (%)
Blood uric acid increased, ≥ G3 (15mg (n = 1)): 0 n (%)
Decreased appetite, All (15mg (n = 1)): 0 n (%)
Decreased appetite, ≥ G3 (15mg (n = 1)): 0 n (%)
Diarrhea, All (15mg (n = 1)): 0 n (%)
Diarrhea, ≥ G3 (15mg (n = 1)): 0 n (%)
Dizziness, All (15mg (n = 1)): 0 n (%)
Dizziness, ≥ G3 (15mg (n = 1)): 0 n (%)
Dry mouth, All (15mg (n = 1)): 0 n (%)
Dry mouth, ≥ G3 (15mg (n = 1)): 0 n (%)
Electrocardiogram QT prolonged, All (15mg (n = 1)): 0 n (%)
Electrocardiogram QT prolonged, ≥ G3 (15mg (n = 1)): 0 n (%)
Electrolyte imbalance, All (15mg (n = 1)): 0 n (%)
Electrolyte imbalance, ≥ G3 (15mg (n = 1)): 0 n (%)
Hemoglobin decreased, All (15mg (n = 1)): 0 n (%)
Hemoglobin decreased, ≥ G3 (15mg (n = 1)): 0 n (%)
Hypertension, All (15mg (n = 1)): 0 n (%)
Hypertension, ≥ G3 (15mg (n = 1)): 0 n (%)
Hyponatremia, All (15mg (n = 1)): 0 n (%)
Hyponatremia, ≥ G3 (15mg (n = 1)): 0 n (%)
Hypoparathyroidism, All (15mg (n = 1)): 0 n (%)
Hypoparathyroidism, ≥ G3 (15mg (n = 1)): 0 n (%)
Mouth ulceration, All (15mg (n = 1)): 0 n (%)
Mouth ulceration, ≥ G3 (15mg (n = 1)): 0 n (%)
Nausea, All (15mg (n = 1)): 0 n (%)
Nausea, ≥ G3 (15mg (n = 1)): 0 n (%)
Oropharyngeal pain, All (15mg (n = 1)): 0 n (%)
Oropharyngeal pain, ≥ G3 (15mg (n = 1)): 0 n (%)
Pain, All (15mg (n = 1)): 0 n (%)
Pain, ≥ G3 (15mg (n = 1)): 0 n (%)
Palmar-plantar erythrodysaesthesia syndrome, All (15mg (n = 1)): 0 n (%)
Palmar-plantar erythrodysaesthesia syndrome, ≥ G3 (15mg (n = 1)): 0 n (%)
Platelet count decreased, All (15mg (n = 1)): 0 n (%)
Platelet count decreased, ≥ G3 (15mg (n = 1)): 0 n (%)
Proteinuria, All (15mg (n = 1)): 0 n (%)
Proteinuria, ≥ G3 (15mg (n = 1)): 0 n (%)
Pyrexia, All (15mg (n = 1)): 0 n (%)
Pyrexia, ≥ G3 (15mg (n = 1)): 0 n (%)
Sinus bradycardia, All (15mg (n = 1)): 0 n (%)
Sinus bradycardia, ≥ G3 (15mg (n = 1)): 0 n (%)
Stomatitis, All (15mg (n = 1)): 0 n (%)
Stomatitis, ≥ G3 (15mg (n = 1)): 0 n (%)
Vomiting, All (15mg (n = 1)): 0 n (%)
Vomiting, ≥ G3 (15mg (n = 1)): 0 n (%)
leukopenia, All (15mg (n = 1)): 1 (100) n (%)
leukopenia, ≥ G3 (15mg (n = 1)): 0 n (%)
neutropenia, All (15mg (n = 1)): 0 n (%)
neutropenia, ≥ G3 (15mg (n = 1)): 0 n (%)
transaminase elevation, All (15mg (n = 1)): 1 (100) n (%)
transaminase elevation, ≥ G3 (15mg (n = 1)): 0 n (%)
Anaemia, All (30mg (n = 1)): 0 n (%)
Anaemia, ≥ G3 (30mg (n = 1)): 0 n (%)
Blood chloride decreased, All (30mg (n = 1)): 0 n (%)
Blood chloride decreased, ≥ G3 (30mg (n = 1)): 0 n (%)
Blood creatinine increased, All (30mg (n = 1)): 0 n (%)
Blood creatinine increased, ≥ G3 (30mg (n = 1)): 0 n (%)
Blood potassium decreased, All (30mg (n = 1)): 0 n (%)
Blood potassium decreased, ≥ G3 (30mg (n = 1)): 0 n (%)
Blood sodium decreased, All (30mg (n = 1)): 0 n (%)
Blood sodium decreased, ≥ G3 (30mg (n = 1)): 0 n (%)
Blood uric acid increased, All (30mg (n = 1)): 0 n (%)
Blood uric acid increased, ≥ G3 (30mg (n = 1)): 0 n (%)
Decreased appetite, All (30mg (n = 1)): 1 (100) n (%)
Decreased appetite, ≥ G3 (30mg (n = 1)): 0 n (%)
Diarrhea, All (30mg (n = 1)): 0 n (%)
Diarrhea, ≥ G3 (30mg (n = 1)): 0 n (%)
Dizziness, All (30mg (n = 1)): 0 n (%)
Dizziness, ≥ G3 (30mg (n = 1)): 0 n (%)
Dry mouth, All (30mg (n = 1)): 0 n (%)
Dry mouth, ≥ G3 (30mg (n = 1)): 0 n (%)
Electrocardiogram QT prolonged, All (30mg (n = 1)): 0 n (%)
Electrocardiogram QT prolonged, ≥ G3 (30mg (n = 1)): 0 n (%)
Electrolyte imbalance, All (30mg (n = 1)): 0 n (%)
Electrolyte imbalance, ≥ G3 (30mg (n = 1)): 0 n (%)
Hemoglobin decreased, All (30mg (n = 1)): 0 n (%)
Hemoglobin decreased, ≥ G3 (30mg (n = 1)): 0 n (%)
Hypertension, All (30mg (n = 1)): 0 n (%)
Hypertension, ≥ G3 (30mg (n = 1)): 0 n (%)
Hyponatremia, All (30mg (n = 1)): 1 (100) n (%)
Hyponatremia, ≥ G3 (30mg (n = 1)): 0 n (%)
Hypoparathyroidism, All (30mg (n = 1)): 0 n (%)
Hypoparathyroidism, ≥ G3 (30mg (n = 1)): 0 n (%)
Mouth ulceration, All (30mg (n = 1)): 0 n (%)
Mouth ulceration, ≥ G3 (30mg (n = 1)): 0 n (%)

— publication PMC9632963, “Preclinical characterization and phase I clinical trial of CT053PTSA targets MET, AXL, and VEGFR2 in patients with advanced solid tumors” (Frontiers in Immunology, 2022)
